Experimental data as given in US20250154144A1 (CHILDREN'S HOSPITAL MEDICAL CENTER, priority 2021, published 2025).
pIC50, pKd: −log10 of the molar value. Like-named read-outs stand apart in the source and are kept apart here.

Columns and labels:
MOLM14(D835Y) cells = format: cell-based; settings: MOLM14(D835Y) cells; for Excess HSA Score: 10 × 10
FLT3 [1] = target: T1, FLT3 (Homo sapiens, UniProt P36888); assay: Reaction Biology NanoBRET target engagement assay in HEK-293 cells, FLT3; settings: NanoBRET FLT3 IC50, HEK-293 cells
T1 sequence (P36888 27-993): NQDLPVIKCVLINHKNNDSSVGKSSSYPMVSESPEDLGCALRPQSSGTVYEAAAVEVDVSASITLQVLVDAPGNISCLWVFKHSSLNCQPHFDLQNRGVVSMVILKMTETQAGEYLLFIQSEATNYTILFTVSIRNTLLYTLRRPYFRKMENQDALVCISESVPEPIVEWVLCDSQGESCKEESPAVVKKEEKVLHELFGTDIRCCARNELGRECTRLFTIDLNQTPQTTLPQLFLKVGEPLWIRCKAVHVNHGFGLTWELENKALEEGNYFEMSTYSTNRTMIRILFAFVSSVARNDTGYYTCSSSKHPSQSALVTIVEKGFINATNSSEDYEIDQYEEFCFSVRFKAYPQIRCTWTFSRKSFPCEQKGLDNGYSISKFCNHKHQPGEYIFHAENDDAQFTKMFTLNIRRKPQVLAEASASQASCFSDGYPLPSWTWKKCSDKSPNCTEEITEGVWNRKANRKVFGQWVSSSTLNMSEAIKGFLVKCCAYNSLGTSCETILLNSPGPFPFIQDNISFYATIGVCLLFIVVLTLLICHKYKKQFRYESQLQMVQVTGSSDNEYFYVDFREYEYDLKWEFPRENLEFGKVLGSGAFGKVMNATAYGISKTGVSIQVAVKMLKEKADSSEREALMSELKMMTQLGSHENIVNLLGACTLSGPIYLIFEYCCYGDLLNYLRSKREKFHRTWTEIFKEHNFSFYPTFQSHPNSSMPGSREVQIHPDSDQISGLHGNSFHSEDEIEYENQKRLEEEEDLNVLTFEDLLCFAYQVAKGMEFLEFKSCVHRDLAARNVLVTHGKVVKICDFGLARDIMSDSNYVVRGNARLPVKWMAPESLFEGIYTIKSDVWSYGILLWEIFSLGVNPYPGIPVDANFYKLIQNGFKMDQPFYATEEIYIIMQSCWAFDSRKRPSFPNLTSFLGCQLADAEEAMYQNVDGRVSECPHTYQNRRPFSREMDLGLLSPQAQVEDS

THP1 cells = assay: Combination drug screening, Cell Titer Glo, 10 × 10 matrix, THP1 cells; format: cell-based; settings: THP1 cells; for Excess HSA Score: 10 × 10
IRAK4 [2] = target: T2, IRAK4 (Homo sapiens, UniProt Q9NWZ3); assay: RBC HotSpot Kinase Assay, IRAK4; settings: IRAK4 IC50
T2 sequence (Q9NWZ3 1-460): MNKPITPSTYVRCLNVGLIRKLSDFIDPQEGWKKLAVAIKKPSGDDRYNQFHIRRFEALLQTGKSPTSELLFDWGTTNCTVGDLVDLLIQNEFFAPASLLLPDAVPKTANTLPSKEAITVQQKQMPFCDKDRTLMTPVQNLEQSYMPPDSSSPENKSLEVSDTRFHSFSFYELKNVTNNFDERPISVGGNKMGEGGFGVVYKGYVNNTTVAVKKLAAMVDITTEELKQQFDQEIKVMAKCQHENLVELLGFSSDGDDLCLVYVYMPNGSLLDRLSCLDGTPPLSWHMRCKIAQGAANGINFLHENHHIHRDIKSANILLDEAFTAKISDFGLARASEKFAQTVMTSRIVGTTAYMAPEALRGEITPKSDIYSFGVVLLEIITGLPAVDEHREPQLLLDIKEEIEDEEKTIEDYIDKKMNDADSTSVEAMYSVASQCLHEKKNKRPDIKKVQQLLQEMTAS

MOLM14 D835Y cells = assay: cells; format: cell-based; settings: Homo sapiens, MOLM-14, 48 h, 48 hours, Cell Titer Glo; read-out: MOLM14 D835Y IC50
IRAK1 [3] = target: T3, IRAK1 (Homo sapiens, UniProt P51617); assay: RBC HotSpot Kinase Assay, IRAK1; settings: IRAK1 IC50
MOLM14 F691L cells = assay: cells; format: cell-based; settings: Homo sapiens, MOLM-14, 48 h, 48 hours, Cell Titer Glo; read-out: MOLM14 F691L IC50
FLT3 [4] = target: T4, FLT3 (Homo sapiens, UniProt P36888); assay: RBC HotSpot Kinase Assay, FLT3; settings: FLT3 IC50
T4 sequence (P36888 610-943 limits assumed): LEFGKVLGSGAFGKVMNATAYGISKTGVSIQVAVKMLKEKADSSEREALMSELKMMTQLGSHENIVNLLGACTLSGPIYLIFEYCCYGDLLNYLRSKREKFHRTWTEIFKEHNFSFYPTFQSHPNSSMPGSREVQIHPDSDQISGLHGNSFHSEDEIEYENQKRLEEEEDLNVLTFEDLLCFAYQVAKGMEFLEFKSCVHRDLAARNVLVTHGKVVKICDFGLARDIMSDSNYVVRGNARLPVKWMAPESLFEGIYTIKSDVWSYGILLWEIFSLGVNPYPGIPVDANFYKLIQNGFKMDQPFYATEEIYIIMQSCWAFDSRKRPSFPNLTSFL

IRAK4 [5] = target: T2, IRAK4; assay: Reaction Biology NanoBRET target engagement assay in HEK-293 cells, IRAK4; settings: NanoBRET IRAK4 IC50, HEK-293 cells
IRAK1 [6] = target: T3, IRAK1; assay: DiscoverX KINOMEscan competition binding, IRAK1; design: purchased RBC (Reaction Biology) HotSpot assay
IRAK4 [7] = target: T2, IRAK4; assay: DiscoverX KINOMEscan competition binding, IRAK4; design: purchased RBC (Reaction Biology) HotSpot assay
[8] = combination with (+)-BAY-1251152
[9] = combination with Eprenetapopt/APR-246
[10] = combination with Venetoclax (ABT-199)

T3 sequence (P51617 whole entry): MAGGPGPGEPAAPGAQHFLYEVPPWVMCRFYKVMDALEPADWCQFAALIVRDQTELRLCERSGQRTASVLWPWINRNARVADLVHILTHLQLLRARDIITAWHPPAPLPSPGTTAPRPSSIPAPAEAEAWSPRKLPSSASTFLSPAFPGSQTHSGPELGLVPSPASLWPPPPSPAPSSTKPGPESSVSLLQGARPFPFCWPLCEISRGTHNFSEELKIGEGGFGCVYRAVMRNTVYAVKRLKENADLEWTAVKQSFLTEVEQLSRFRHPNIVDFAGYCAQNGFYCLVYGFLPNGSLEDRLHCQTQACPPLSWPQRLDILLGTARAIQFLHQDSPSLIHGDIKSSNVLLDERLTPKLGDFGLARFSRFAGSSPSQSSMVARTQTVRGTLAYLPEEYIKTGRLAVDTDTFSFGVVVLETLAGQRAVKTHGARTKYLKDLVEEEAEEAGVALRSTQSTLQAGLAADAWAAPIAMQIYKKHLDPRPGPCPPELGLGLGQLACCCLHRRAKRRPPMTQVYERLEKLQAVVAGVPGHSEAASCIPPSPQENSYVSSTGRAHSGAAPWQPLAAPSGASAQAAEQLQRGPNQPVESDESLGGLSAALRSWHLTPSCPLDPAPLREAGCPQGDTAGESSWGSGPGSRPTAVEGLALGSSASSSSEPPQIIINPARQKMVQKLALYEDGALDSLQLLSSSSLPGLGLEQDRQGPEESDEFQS

| Structure (SMILES) | Excess HSA Score (MOLM14(D835Y) cells; [8]) | Excess HSA Score (MOLM14(D835Y) cells; combination with AMG-232) | Excess HSA Score (MOLM14(D835Y) cells; combination with AZD-5363) | Excess HSA Score (MOLM14(D835Y) cells; [9]) | Excess HSA Score (MOLM14(D835Y) cells; combination with Ivosidenib) | Excess HSA Score (MOLM14(D835Y) cells; combination with Lenalidomide) | Excess HSA Score (MOLM14(D835Y) cells; combination with Palbociclib) | Excess HSA Score (MOLM14(D835Y) cells; combination with Prednisolone) | Excess HSA Score (MOLM14(D835Y) cells; combination with SNDX-5613) | Excess HSA Score (MOLM14(D835Y) cells; combination with TNO-155) | Excess HSA Score (MOLM14(D835Y) cells; combination with Trametinib) | Excess HSA Score (MOLM14(D835Y) cells; combination with Ulixertinib) | Excess HSA Score (MOLM14(D835Y) cells; [10]) | Comments (MOLM14(D835Y) cells; combination with SNDX-5613) | Comments (MOLM14(D835Y) cells; [10]) | pIC50 (FLT3 [1]) | pIC50 (IRAK4 [2]) | pIC50 (MOLM14 D835Y cells) | pIC50 (IRAK1 [3]) | pIC50 (MOLM14 F691L cells) | further results |
| --- | --- | --- | --- | --- | --- | --- | --- | --- | --- | --- | --- | --- | --- | --- | --- | --- | --- | --- | --- | --- | --- |
| COc1ccn2c(-c3ccnc(N[C@H]4CNC[C@@H]4F)n3)cnc2c1 [Compound 28, N-((3S,4S)-4-fluoropyrrolidin-3-yl)-4-(7-methoxyimidazo[1,2-a]pyridin-3-yl)pyrimidin-2-amine] | −477 | −628.3 | −377.1 | 330.3 | −92.39 | 340.1 | −207.7 | −600.8 | 49.85 | −593.8 | 115.3 | 57.98 | −1089 | Antagonistic | Synergistic | 7.19 | 9.10 | 7.72 | 8.22 | 6.51 | Excess HSA Score (THP1 cells; [8]): −347.5; Excess HSA Score (THP1 cells; combination with AMG-232): 401.8; Excess HSA Score (THP1 cells; combination with AZD-5363): −208.6; Excess HSA Score (THP1 cells; [9]): −126.4; Excess HSA Score (THP1 cells; combination with Ivosidenib): 313; Excess HSA Score (THP1 cells; combination with Lenalidomide): 486.7; Excess HSA Score (THP1 cells; combination with Palbociclib): −270.8; Excess HSA Score (THP1 cells; combination with Prednisolone): 381.4; Excess HSA Score (THP1 cells; combination with SNDX-5613): 492.2; Excess HSA Score (THP1 cells; combination with TNO-155): 98.5766; Excess HSA Score (THP1 cells; combination with Trametinib): −880.8; Excess HSA Score (THP1 cells; combination with Ulixertinib): −60.25; Excess HSA Score (THP1 cells; [10]): −1412; Comments (THP1 cells; combination with TNO-155): Antagonistic; Comments (THP1 cells; [10]): Synergistic; pIC50 (FLT3 [4]): > 9.30; pIC50 (IRAK4 [5]): 9.15 |
| COc1cc2ncc(-c3ccnc(N[C@H]4CNCC[C@@H]4F)n3)n2cc1C(C)(C)O [Compound 45, 2-(3-(2-(((3S,4S)-4-fluoropiperidin-3-yl)amino)pyrimidin-4-yl)-7-methoxyimidazo[1,2-a]pyridin-6-yl)propan-2-ol] | 117.1 | −212.5 | 384.6 | 477.7 | −76.48 | 515.9 | −172.2 | −357.5 | 58.42 | −372.6 | −362.6 | 288.2 | −803.3 | Antagonistic | Synergistic | 7.55 | 9.15 | 8.05 | 8.70 | 7.37 | Excess HSA Score (THP1 cells; [8]): −402.7072; Excess HSA Score (THP1 cells; combination with AMG-232): 138.2; Excess HSA Score (THP1 cells; combination with AZD-5363): −206.1; Excess HSA Score (THP1 cells; [9]): 183; Excess HSA Score (THP1 cells; combination with Ivosidenib): 93.15; Excess HSA Score (THP1 cells; combination with Lenalidomide): 388.3; Excess HSA Score (THP1 cells; combination with Palbociclib): −236; Excess HSA Score (THP1 cells; combination with Prednisolone): 67.79; Excess HSA Score (THP1 cells; combination with SNDX-5613): 169.6; Excess HSA Score (THP1 cells; combination with TNO-155): −134.2061; Excess HSA Score (THP1 cells; combination with Trametinib): −226.2; Excess HSA Score (THP1 cells; combination with Ulixertinib): 218.0361; Excess HSA Score (THP1 cells; [10]): −360.8; Comments (THP1 cells; [8]): Synergistic; Comments (THP1 cells; combination with Prednisolone): Antagonistic; pIC50 (FLT3 [4]): > 9.30; pIC50 (IRAK4 [5]): > 9.30 |
| COc1cc2ncc(-c3ccnc(N[C@H]4CNC[C@@H]4F)n3)n2cc1C(C)(C)O [Compound 43, 2-(3-(2-(((3S,4S)-4-fluoropyrrolidin-3-yl)amino)pyrimidin-4-yl)-7-methoxyimidazo[1,2-a]pyridin-6-yl)propan-2-ol] |  |  |  |  |  |  |  |  |  |  |  |  |  |  |  |  | > 9.30 | 7.96 | 9.15 | 7.16 | pKd (IRAK1 [6]): 9.48; pKd (IRAK4 [7]): 10.09 |
